The test deals with strain Mg Ref 1 of M. graminicola. The test can be described thus: In vitro evaluation of the sensitivity level of M. graminicola towards epoxiconazole and folpet alone or in admixture (mycelial growth by optical density, 96-well microtitre plate, Wadley method). In kind it is cell-based, Mycosphaerella graminicola. The settings on record: Zymoseptoria tritici, 168 h, fungicide used alone, 7 days, 19° C., OD 405 nm. As to the method: The Wadley method is well-known method for determining whether synergy exists. In the Wadley method, synergistic activity is determined from dose response curves. With this method, the efficacy of the active ingredient (“a.i.”) is determined by comparing the degree of fungal attack on treated plants with that on untreated, similarly inoculated and incubated check plants. Each a.i. is generally tested at multiple (e.g., 6) concentrations, and dose response curves are generated. The dose response curves are used to establish the EC50 (i.e., the effective concentration of a.i. providing 50% disease control) of the individual compounds as well as of the combinations (EC50observed). The experimentally found values of the mixture at a given weight ratio are compared ith the values that would have been found were only a complementary efficacy of the components was present (EC50 (A+B)expected). The EC50 (A+B)expected is generally calculated according to Wadley (Levi et al., EPPO-Bulletin 16, 1986, 651-657) or (Wadley, F. M., U.S. Dep. Agric., Res. Adm., Bur. Entomol. And Plant Quar. ET-223, 1945, 8) as follows:
EC50(A+B)expected−(a+b)/[(a/EC50(A)observed)+b/EC50(B)observed)] […]
The degree of mycelial growth in the liquid medium was assessed by measuring the optical density of the wells containing the spore suspensions and fungicide concentrations. […]

Data on 2 compounds can be found in patent US20130190169A1, “SYNERGISTIC FUNGICIDAL COMBINATION” (priority 2010, published 2013).

For orientation: EC50 means the concentration giving half of the maximal effect. `Fc1ccc([C@]2(Cn3cncn3)O[C@H]2c2ccccc2Cl)cc1` (racemic) [Epoxiconazole, (2RS;3SR)-1-[3-(2-chlorophenyl)-2,3-epoxy-2-(4-fluorophenyl)propyl]-1H-1,2,4-triazole]: the half-maximal effective concentration (EC50) was 0.01 µg/mL.

On to `O=C1c2ccccc2C(=O)N1SC(Cl)(Cl)Cl` [Folpet, N-(trichloromethanesulfenyl)phthalimide], for which the EC50 was found to be 2.39 µg/mL.
